Data from patent US5032384A, “Compositions and method for the treatment of disease” (Block Drug Company, Inc., priority 1989, dated 1991).

Molecular target: cyclooxygenase cascade
Experiment: Inhibition of PGE2 synthesis (assay of cyclooxygenase products, 14C arachidonate incorporation) in homogenate of inflamed human gingival tissue
Type: biochemical
Description: A large pool of inflamed human gingival tissue was obtained from patients with periodontitis who were undergoing routine periodontal surgery. The tissues were immediately stored in liquid nitrogen prior to use or were used fresh. The assay of cyclooxygenase products was performed as a modification of the assay of El Attar et al., J. Periodon. […] Pooled tissue was weighed and homogenized at 0°-4° C. with a Polytron® (Brinkman) homogenizer in a 0.2 M TRIS buffer, pH 8.0, at a final concentration of 20 mg/ml. After centrifugation for 10 minutes at 1200×g, the supernatant was divided into 3 ml aliquots for incubation in the presence or absence of a test compound.
Prostanoids were extracted as described by Powell, Methods in Eng., 86, 467 (1982) using a Sep-Pak-C18 cartridge from Waters Associates. The Sep-Pak was prepared by the sequential elution of 20 milliliters of ethanol and 20 milliliters of water. The sample was then adjusted to 15% ethanol, pH 3.0, with acetic acid and applied to the column. […]
These are readily separated and quantified using a 4.6×100 nm RP-18 Spheri-5u column from Brownle Labs. A Flow-One radioactivity monitor simultaneously measured radioactivity while monitoring elution at 192 nanometers.
The net incorporation of the 14C arachidonate was measured in the absence of the test substance in order to determine the maximum activity of the cyclooxygenase cascade.

| SMILES | IC50 value of ketoprofen (inhibition of PGE2 synthesis) (change in presence of alpha-tocopherol) | IC50 value of alpha-tocopherol (inhibition of PGE2 synthesis) (change in presence of ketoprofen) |
| --- | --- | --- |
| CC(C(=O)O)c1cccc(C(=O)c2ccccc2)c1 (centres unmarked) [ketoprofen] | lowered |  |
| Cc1c(C)c2c(c(C)c1O)CCC(C)(CCCC(C)CCCC(C)CCCC(C)C)O2 (stereo not drawn) [alpha-tocopherol] |  | lowered |
